How the values were obtained:
Conditions in all cases: exposure time: 72 h
[1] = system: FT3469 (normal neural stem cell line); experiment: phenotypic distance (Euclidean, principal components) from DMSO controls (arbitrary units); higher = stronger morphological change
[2] = system: E28 (patient-derived glioblastoma stem cells of classical subtype); experiment: as above
[3] = system: E13 (patient-derived glioblastoma stem cells of classical subtype); experiment: as above
[4] = system: E34 (patient-derived glioblastoma stem cells of proneural subtype); experiment: as above
[5] = system: E57 (patient-derived glioblastoma stem cells of mesenchymal subtype); experiment: as above
[6] = system: E21 (patient-derived glioblastoma stem cells of mesenchymal subtype); experiment: as above
[7] = system: E31 (patient-derived glioblastoma stem cells of proneural subtype); experiment: as above
[8] = system: FT3469; experiment: surviving fraction (nuclei count normalised to DMSO); higher = more cells surviving (less toxic)
[9] = system: E28; experiment: as above
[10] = system: E13; experiment: as above
[11] = system: E34; experiment: as above
[12] = system: E57; experiment: as above
[13] = system: E21; experiment: as above
[14] = system: E31; experiment: as above
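Wherever phenotypic distance (Euclidean, principal components) from DMSO controls is given: cell Painting imaging in 384-well plates, CellProfiler features reduced to at least 20 principal components, Euclidean distance versus same-plate DMSO vehicle wells (0.1% v/v), median over six images per well.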
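Wherever surviving fraction (nuclei count normalised to DMSO) is given: nuclei counted by high-content imaging of Hoechst-stained cells in laminin-coated 384-well plates, relative to 0.1% DMSO vehicle wells, with staurosporine as cell-death control.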

COC(=O)C1=C(C)NC(C)=C(C(=O)OCC(C)C)C1c1ccccc1[N+](=O)[O-] (stereo not drawn) [Nisoldipine]
Conditions	phenotypic distance	surviving fraction
[1], 4.1 nM	0.816	–
[1], 12.3 nM	1.12	–
[1], 37 nM	0.632	–
[1], 111.1 nM	0.827	–
[1], 333.3 nM	1.05	–
[1], 1000 nM	1.4	–
[1], 3000 nM	0.987	–
[2], 4.1 nM	0.647	–
[2], 12.3 nM	0.706	–
[2], 37 nM	1.08	–
[2], 111.1 nM	0.981	–
[2], 333.3 nM	0.997	–
[2], 1000 nM	0.908	–
[2], 3000 nM	0.792	–
[3], 4.1 nM	0.597	–
[3], 12.3 nM	0.435	–
[3], 37 nM	0.491	–
[3], 111.1 nM	3.02	–
[3], 333.3 nM	1.31	–
[3], 1000 nM	1.21	–
[3], 3000 nM	1.2	–
[4], 4.1 nM	2	–
[4], 12.3 nM	0.511	–
[4], 37 nM	0.835	–
[4], 111.1 nM	0.542	–
[4], 333.3 nM	0.889	–
[4], 1000 nM	0.614	–
[4], 3000 nM	1.06	–
[5], 4.1 nM	0.873	–
[5], 12.3 nM	0.508	–
[5], 37 nM	0.494	–
[5], 111.1 nM	0.633	–
[5], 333.3 nM	0.615	–
[5], 1000 nM	0.552	–
[5], 3000 nM	0.478	–
[6], 4.1 nM	0.832	–
[6], 12.3 nM	0.907	–
[6], 37 nM	1.12	–
[6], 111.1 nM	1.2	–
[6], 333.3 nM	0.961	–
[6], 1000 nM	0.669	–
[6], 3000 nM	1.16	–
[7], 4.1 nM	0.922	–
[7], 12.3 nM	1.01	–
[7], 37 nM	1.26	–
[7], 111.1 nM	0.944	–
[7], 333.3 nM	0.976	–
[7], 1000 nM	1.03	–
[7], 3000 nM	1.31	–
[8], 4.1 nM	–	0.965
[8], 12.3 nM	–	0.938
[8], 37 nM	–	1.04
[8], 111.1 nM	–	0.966
[8], 333.3 nM	–	0.965
[8], 1000 nM	–	0.942
[8], 3000 nM	–	0.896
[9], 4.1 nM	–	0.944
[9], 12.3 nM	–	0.957
[9], 37 nM	–	0.921
[9], 111.1 nM	–	0.86
[9], 333.3 nM	–	0.843
[9], 1000 nM	–	0.972
[9], 3000 nM	–	0.9
[10], 4.1 nM	–	0.894
[10], 12.3 nM	–	1.08
[10], 37 nM	–	0.924
[10], 111.1 nM	–	0.974
[10], 333.3 nM	–	0.947
[10], 1000 nM	–	0.946
[10], 3000 nM	–	0.883
[11], 4.1 nM	–	0.949
[11], 12.3 nM	–	0.965
[11], 37 nM	–	1.04
[11], 111.1 nM	–	0.931
[11], 333.3 nM	–	0.853
[11], 1000 nM	–	0.959
[11], 3000 nM	–	0.955
[12], 4.1 nM	–	0.904
[12], 12.3 nM	–	0.985
[12], 37 nM	–	0.923
[12], 111.1 nM	–	0.969
[12], 333.3 nM	–	0.929
[12], 1000 nM	–	1.07
[12], 3000 nM	–	0.96
[13], 4.1 nM	–	0.82
[13], 12.3 nM	–	0.905
[13], 37 nM	–	0.945
[13], 111.1 nM	–	0.892
[13], 333.3 nM	–	0.945
[13], 1000 nM	–	0.942
[13], 3000 nM	–	0.857
[14], 4.1 nM	–	0.972
[14], 12.3 nM	–	0.914
[14], 37 nM	–	0.886
[14], 111.1 nM	–	0.892
[14], 333.3 nM	–	0.949
[14], 1000 nM	–	0.996
[14], 3000 nM	–	0.938
